Tests used:
[1] = NP TLC on unimpregnated control plate; assay type: physicochemical; conditions: Rf value from unimpregnated NP plate (control); mobile phase pH 7.4
bovine serum albumin BSA [2] = biological target: T1, bovine serum albumin BSA (Bos taurus, UniProt P02769); assay: NP TLC on silica gel plates impregnated with bovine serum albumin; assay type: in vitro ADME; conditions: for NP/C: Rf from BSA-modified NP plate / Rf from clear one (control)
T1 construct: purchased Sigma Aldrich

[3] = HPLC on immobilized artificial membrane column (HPLC-IAM); assay type: physicochemical; conditions: for log kIAM: logarithm of retention factor, mobile phase pH 7.4; for kIAM: retention factor, phosphate buffer pH 7.4/acetonitrile 80:20
[4] = set-up: method as in earlier work; conditions: code describing the acid-base properties; source Chembl; cited from earlier work
human serum albumin HSA = biological target: T2, human serum albumin HSA (Homo sapiens, UniProt P02768); assay: HPLC on immobilized human serum albumin column (HPLC-HSA); assay type: in vitro ADME; conditions: for log kHSA: logarithm of retention factor, mobile phase pH 7.4; for kHSA: retention factor, acetate buffer pH 7.4/acetonitrile/methanol 85:10:5
T2 construct: 4 × 10 mm
T2 sequence (P02768 25-609): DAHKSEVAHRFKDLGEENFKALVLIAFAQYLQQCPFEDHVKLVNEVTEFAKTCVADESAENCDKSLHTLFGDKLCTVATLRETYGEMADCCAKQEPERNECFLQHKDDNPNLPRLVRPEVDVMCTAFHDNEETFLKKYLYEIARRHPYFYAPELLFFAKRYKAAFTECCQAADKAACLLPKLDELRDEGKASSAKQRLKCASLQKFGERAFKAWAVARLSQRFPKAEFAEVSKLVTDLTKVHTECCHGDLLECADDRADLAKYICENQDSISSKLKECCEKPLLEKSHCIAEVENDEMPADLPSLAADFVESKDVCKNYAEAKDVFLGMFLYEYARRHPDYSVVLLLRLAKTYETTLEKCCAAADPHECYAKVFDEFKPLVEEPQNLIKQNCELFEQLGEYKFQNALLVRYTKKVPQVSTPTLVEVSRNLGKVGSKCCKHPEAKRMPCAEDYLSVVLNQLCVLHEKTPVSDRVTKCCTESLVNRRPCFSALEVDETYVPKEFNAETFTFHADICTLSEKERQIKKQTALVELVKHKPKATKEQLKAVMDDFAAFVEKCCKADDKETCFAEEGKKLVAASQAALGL

bovine serum albumin BSA [5] = biological target: T1, bovine serum albumin BSA; assay: RP TLC on silanized RP-2 plates impregnated with bovine serum albumin; assay type: in vitro ADME; conditions: for RP/C: Rf from BSA-modified RP-2 plate / Rf from clear one (control); for RP: Rf value from RP plate impregnated with 2 mg/mL BSA solution, mobile phase pH 7.4
[6] = RP TLC on unimpregnated RP-2 control plate; assay type: physicochemical; conditions: Rf value from unimpregnated RP plate (control); mobile phase pH 7.4
[7] = Rf value from NP plate impregnated with 2 mg/mL BSA solution, mobile phase pH 7.4
Throughout, for a/b/n code: key: (-1) - acids; (0) - neutrals; (1) - bases.

T1 sequence (P02769 25-607): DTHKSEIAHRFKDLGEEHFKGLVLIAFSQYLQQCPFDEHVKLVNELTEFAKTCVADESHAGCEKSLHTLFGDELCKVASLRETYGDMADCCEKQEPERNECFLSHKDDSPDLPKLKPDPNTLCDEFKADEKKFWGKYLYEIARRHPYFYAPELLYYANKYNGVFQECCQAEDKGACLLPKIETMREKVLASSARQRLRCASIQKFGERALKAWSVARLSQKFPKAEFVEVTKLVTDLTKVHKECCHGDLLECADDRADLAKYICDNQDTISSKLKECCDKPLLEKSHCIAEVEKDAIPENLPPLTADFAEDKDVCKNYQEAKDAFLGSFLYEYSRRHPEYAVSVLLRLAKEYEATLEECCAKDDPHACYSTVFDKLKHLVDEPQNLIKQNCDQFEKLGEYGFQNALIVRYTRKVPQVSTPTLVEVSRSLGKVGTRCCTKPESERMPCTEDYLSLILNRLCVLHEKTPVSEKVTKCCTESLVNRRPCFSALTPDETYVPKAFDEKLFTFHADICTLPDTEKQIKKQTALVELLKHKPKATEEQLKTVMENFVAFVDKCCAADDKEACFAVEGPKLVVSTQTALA

| Compound | CNP [1] | NP (bovine serum albumin BSA [2]; pH 7.4) | log kIAM [3] | kIAM [3] | a/b/n code [4] | log kHSA (human serum albumin HSA) | kHSA (human serum albumin HSA) | NP/C (bovine serum albumin BSA [2]) | NP (bovine serum albumin BSA [2]; [7]) | RP/C (bovine serum albumin BSA [5]) | RP (bovine serum albumin BSA [5]) | CRP [6] |
| --- | --- | --- | --- | --- | --- | --- | --- | --- | --- | --- | --- | --- |
| COCCCC/C(=N\OCCN)c1ccc(C(F)(F)F)cc1 [fluvoxamine] | 0.34 |  |  |  |  |  |  |  |  |  |  |  |
| CC1COc2c(N3CCN(C)CC3)c(F)cc3c(=O)c(C(=O)O)cn1c23 (stereo not drawn) [ofloxacin] | 0.24 | 0.23 | 0.49 | 3.07 |  |  |  |  |  |  |  |  |
| C=C[C@H]1C[N@@]2CC[C@H]1C[C@H]2[C@H](O)c1ccnc2ccc(OC)cc12 [quinine] |  |  | 0.49 | 3.06 |  |  |  |  |  |  |  |  |
| gentamycin | 0.96 |  | 0.63 | 4.25 | 1 |  |  |  |  |  |  |  |
| NCC1(CC(=O)O)CCCCC1 [gabapentin] |  |  | 0.23 | 1.70 |  | -0.84 | 0.15 |  |  |  |  |  |
| CN(C)CCC=C1c2ccccc2CCc2ccccc21 [amitriptyline] | 0.32 |  |  |  | 1 | 0.77 | 5.87 | 0.97 | 0.31 | 0.94 | 0.63 | 0.67 |
| Nc1ccc(O)c(C(=O)O)c1 [mesalazine] |  |  | 0.11 | 1.28 | -1 | -0.73 | 0.18 |  |  | 0.98 | 0.97 | 0.99 |
| CC(=O)CC(c1ccccc1)c1c(O)c2ccccc2oc1=O (stereo not drawn) [warfarin] |  |  | 0.44 | 2.76 |  |  |  |  |  |  |  |  |
| CN(C)CCCN1c2ccccc2CCc2ccc(Cl)cc21 [clomipramine] |  |  |  | 3.05 |  |  |  |  |  |  |  |  |
| CCC1(c2ccccc2)C(=O)NCNC1=O [primidone] | 0.90 |  | 0.31 | 2.02 | 0 | -0.66 | 0.22 | 1.03 | 0.93 | 1.04 | 0.97 | 0.93 |
| CC(C)C[C@H](CN)CC(=O)O [pregabalin] |  |  | 0.22 | 1.65 |  | -0.87 | 0.14 |  |  |  |  |  |
| NS(=O)(=O)c1cc2c(cc1Cl)NCNS2(=O)=O [hydrochlorotiazide] |  |  | 0.30 | 2.01 |  |  |  |  |  |  |  |  |
| CO[C@H]1/C=C/O[C@@]2(C)Oc3c(C)c(O)c4c(O)c(c(/C=N/N5CCN(C)CC5)c(O)c4c3C2=O)NC(=O)/C(C)=C\C=C\[C@H](C)[C@H](O)[C@@H](C)[C@@H](O)[C@@H](C)[C@H](OC(C)=O)[C@@H]1C [rifampicin] | 0.73 |  | 0.92 | 8.37 |  | -1.53 | 0.03 |  | 0.77 |  | 0.94 | 0.95 |
| CCS(=O)(=O)CCn1c([N+](=O)[O-])cnc1C [tinidazole] | 0.89 |  | 0.30 | 2.00 |  | -0.92 | 0.12 |  | 0.88 |  |  |  |
| CC(=O)Nc1nnc(S(N)(=O)=O)s1 [acetazolamid] |  |  |  |  |  | -0.13 | 0.74 |  |  |  | 0.96 | 0.97 |
| CCC(C)n1ncn(-c2ccc(N3CCN(c4ccc(OCC5COC(Cn6cncn6)(c6ccc(Cl)cc6Cl)O5)cc4)CC3)cc2)c1=O (stereo not drawn) [itraconazole] | 0.96 |  | 0.79 | 6.15 | 0 | 0.98 | 9.65 | 1.01 | 0.97 | 0.98 | 0.84 | 0.86 |
| CC[C@@H](C(N)=O)N1CCCC1=O [levetiracetam] | 0.92 |  | 0.21 | 1.62 | 0 | -1.16 | 0.07 | 1.00 | 0.92 | 1.00 | 0.92 | 0.92 |
| CNCC[C@H](Oc1cccc2ccccc12)c1cccs1 [duloxetine] |  |  | 0.45 | 2.84 |  | 0.91 | 8.16 |  |  |  |  |  |
| NC(=O)N1c2ccccc2CC(=O)c2ccccc21 [oxcarbamazepine] | 0.91 |  | 0.35 | 2.26 |  | -0.40 | 0.40 |  | 0.90 |  | 0.91 | 0.91 |
| Nc1cc(N2CCCCC2)nc(N)[n+]1[O-] [minoxidil] |  |  | 0.29 | 1.96 |  |  |  |  |  |  |  |  |
| CN(C)CCC=C1c2ccccc2COc2ccccc21 [doxepin] | 0.30 |  | 0.45 | 2.81 | 1 | 0.63 | 4.25 | 1.03 | 0.31 | 0.93 | 0.54 |  |
| CCOC(=O)C1=C(C)NC(C)=C(C(=O)OC)C1c1cccc([N+](=O)[O-])c1 (stereo not drawn) [nitrendipine] | 0.97 |  | 0.47 | 2.98 | 0 | 0.55 | 3.55 | 1.00 | 0.97 | 1.00 | 0.86 | 0.86 |
| CN1CCC[C@@H]1Cc1c[nH]c2ccc(CCS(=O)(=O)c3ccccc3)cc12 [eletriptan] |  |  | 0.55 | 3.57 | 1 | 0.58 | 3.78 |  |  |  |  |  |
| CCN(CC)CCCC(C)Nc1ccnc2cc(Cl)ccc12 (stereo not drawn) [chloroquine] |  |  | 0.49 |  |  |  |  |  |  |  |  |  |
| CCCc1cc(=O)[nH]c(=S)[nH]1 [propylthiouracil] |  |  | 0.18 | 1.51 |  |  |  |  |  |  |  |  |
| COc1cc(Cc2cnc(N)nc2N)cc(OC)c1OC [trimethoprim] | 0.57 |  |  |  |  |  |  |  | 0.59 |  |  |  |
| CN(C)CCCC1(c2ccc(F)cc2)OCc2cc(C#N)ccc21 (stereo not drawn) [citalopram] |  |  | 0.50 | 3.14 |  |  |  |  |  |  |  |  |
| CC(C)(C)NC[C@H](O)COc1nsnc1N1CCOCC1 [timolol] | 0.34 |  |  | 2.88 |  |  | 0.13 |  | 0.32 |  | 0.97 | 0.97 |
| CCC[C@@H]1C[C@@H](C(=O)N[C@@H]([C@H]2O[C@H](SC)[C@H](O)[C@@H](O)[C@H]2O)[C@@H](C)O)N(C)C1 [lincomycin] | 0.91 |  | 0.59 | 3.89 | 1 | -0.08 | 0.82 | 1.00 | 0.91 |  |  |  |
| CCCCN1CCCCC1C(=O)Nc1c(C)cccc1C (stereo not drawn) [bupivacaine] | 0.67 |  |  |  | 0 | 0.07 | 1.18 | 1.00 | 0.67 | 1.01 | 0.75 | 0.74 |
